Test results published in US6835382B2, “Ii peptide therapeutics to enhance antigen presentation” (University of Massachusetts, priority 1996, dated 2004).
No end group written: not given here.

Key:
HLA-DR1 molecules [1] = test: release of biotin-labeled hMBP(90-102) from HLA-DR1 without unlabeled antigenic peptide (assay I); type: binding, human; conditions: Table 37, no unlabeled hMBP(90-102)
HLA-DR1 molecules [2] = test: release of biotin-labeled hMBP(90-102) from HLA-DR1 in the presence of unlabeled hMBP (assay II); type: binding, human; conditions: Table 37, unlabeled hMBP(90-102) 250 μM
HLA-DR1 molecules [3] = test: exchange of biotinylated hMBP(90-102) into antigenic peptide-loaded HLA-DR1 (assay III); type: binding, human; conditions: Table 38; HLA-DR1 preloaded with unlabeled hMBP(90-102) 50 μM; exchange with biotin-labeled hMBP(90-102) 50 μM, 37° C., 1 h; fraction of positive control o.d.; no enhancement = 0.08
HLA-DR1 molecules [4] = biological target: T1, HLA-DR1 molecules (Homo sapiens, UniProt P01903+P01911, A100R/D57E/F55L/F60I/F76Y/I96L/L162R/M171V/P40L/Q125E/R42F/V115G/Y59C); test: binding of biotin-labeled hMBP(90-102) to "empty" HLA-DR1 (assay IV); conditions: Table 39; AE101 series compound 64 μM; biotin-labeled hMBP(90-102) 50 μM, 37° C., 1 h; no enhancement = 1
T1 construct: The HLA-DR alpha gene was truncated after Asn^192 to remove transmembranal and cytoplasmic regions from the protein product; A gene coding for the HLA-DR1 beta chain was truncated after position Lys^198, again to delete the transmembranal region; made in house; host or cells: insect cell line printed as HS / H5 (Invitrogen), co-infected with two baculoviruses; concentrated culture supernatant captured on 12CA5 antibody

cyclic LRMKLPK (bridge (positions not given here); also: cyclic, ring type not given here) [AE381, “head-to-tail” cyclization from the amino-terminus to the carboxyl-terminus of AE114]
Relative Release, Without unlabeled hMBP(90-102), 1 μM (HLA-DR1 molecules [1]; AE101 series compound 1 μM): 0.64 | Relative Release, Without unlabeled hMBP(90-102), 64 μM (HLA-DR1 molecules [1]; AE101 series compound 64 μM): 0.5 | Relative Release, With unlabeled hMBP(90-102), 1 μM (HLA-DR1 molecules [2]; AE101 series compound 1 μM): 0.09 | Relative Release, With unlabeled hMBP(90-102), 64 μM (HLA-DR1 molecules [2]; AE101 series compound 64 μM): −0.19 | Relative Binding (HLA-DR1 molecules [3]): −0.12 | Relative Enhancement (HLA-DR1 molecules [4]): 1.84
